Data published in patent US20140329863A1 (priority 2011, published 2014).
“Also recorded” adds a separate entry of the source. Like-named read-outs stand apart in the source and are kept apart here.

Experiments:
[1] = Hepatic microsome stability, mouse; format: in vitro ADME; details: mouse liver microsomes
Procedure: (§1) Hepatic microsomal stability assays were performed in two stages. In the first set of experiments, aliquots of the DMSO solute stocks were diluted into ACN and then into assay buffer (PBS, pH 7.4, ±0.05% PS80). Final experimental solute concentrations were 1 μM (0.6% ACN, 0.01% DMSO). Commercially available mouse, rat, or human hepatic microsomes (˜0.5 mg/ml final concentration), and NADPH (1 mM) or PBS were added. The resulting mixture was incubated at 37° C., and aliquots removed at 0, 1, 10, 30 and 60 min, then quenched with ACN containing 2 μM carbamazepine (internal standard). […] Duplicate incubations were run for each time-point. The percentage of solute remaining at the end of the incubation was used to determine solute half-life.
(§2) These were diluted 500-fold into 1 mL of microsomal incubation mixture to yield a final concentration of 1 μM. The incubation mixture was composed of 100 mM phosphate buffer, pH 7.4, and NADPH regenerating system (BD Biosciences NADPH Regenerating System Solutions A & B). This mixture was preincubated at 37° C. for 5 min in an Eppendorf Thermo mixer, and the reaction initiated by addition of 0.5 mg (25 μl of a 20 mg/mL solution) of liver microsomes. Aliquots (100 μl) were withdrawn at 0, 5, 15, 30, and 60 min, and added to 100 μl ACN containing internal standard. […] The percentage of solute remaining at the end of the incubation was used to determine species-specific values of scaled intrinsic clearance, hepatic clearance, and predicted hepatic extraction based upon the calculations below {Obach, 1999 #9097}.
(§3) for which mg microsomal protein/gm liver was 45 for all species, and gm liver/kg body weight were 32 for dog, 88 for mouse, 40 for rat and 25 for human.
(§4) Clh=(Q*Clint,scaled)/(Q+Clint,scaled)
(§5) for which Q was hepatic blood flow; values of 90 ml/min/kg for mouse, 66 ml/min/kg for rat, and 21 ml/min/kg for human were used.
(§6) for which ER estimates the amount of compound cleared during a single pass through the liver (Low ER<0.3, moderate ER 0.3-0.7, high ER>0.7).

[2] = Hepatic microsome stability, human; format: in vitro ADME; details: for metabolism in HLM incubations: pooled human liver microsomes, 60 min, with or without CYP inhibitors
Procedure: as §1, §2, §3, §4, §5, §6

[3] = tested on: PrP^Sc in dividing ScN2a-cl3 cells; format: cell-based, mouse
[4] = […]
[5] = in vitro; details: dog, MDCK-MDR1
[6] = tested on: P-gp (MDR1); test: in vitro; details: dog, MDCK-MDR1
[7] = Hepatic microsomal stability, rat; details: for half-life at 1 μM: Sprague-Dawley, rat, pH 7.4; for Hepatic Extraction Ratio Rat / t1/2 Rat (extrapolated): rat microsomes
[8] = Hepatic microsomal stability, mouse; details: for half-life at 1 μM: CD-1, mouse, pH 7.4; for Hepatic Extraction Ratio Mouse: mouse microsomes
[9] = Hepatic microsomal stability, human; details: for half-life at 1 μM: pH 7.4
[10] = Multidose (three-day) pharmacokinetics in liquid diet in FVB mice; details: for concentration at 3 days: FVB, mouse, in vivo
[11] = Hepatic microsomal stability, dog; format: in vitro ADME; details: for half-life at 1 μM: beagle, liver microsomes, pH 7.4
Procedure: as §2, with “to […] ACN containing” for “to 100 μl ACN containing”, “calculations below (Obach, 1999).” for “calculations below {Obach, 1999 #9097}.”
as §3
for which ER estimates the amount of compound cleared during a single pass through the liver (Low ER <0.3, moderate ER 0.3-0.7, high ER>0.7).

[12] = tested on: PrP^Sc in dividing ScN2a-c13 cells; details: read-out: EC50 (ELISA), reduction of PrP^Sc load; dividing ScN2a-c13 cells
[13] = Table 29, 2-AMT analogs tested for potency, usually n = 3 or more
[14] = 40 mg/kg, Brain Concentration (Css), three-day dosing in liquid diet, brain
[15] = 40 mg/kg, Plasma Concentration (Css), three-day dosing in liquid diet, plasma
[16] = 80 mg/kg, Plasma Concentration (Css), three-day dosing in liquid diet, plasma
[17] = 130 mg/kg, Brain Concentration (Css), three-day dosing in liquid diet, brain
[18] = 130 mg/kg, Plasma Concentration (Css), three-day dosing in liquid diet, plasma
[19] = 210 mg/kg, Brain Concentration (Css), three-day dosing in liquid diet, brain
[20] = 210 mg/kg, Plasma Concentration (Css), three-day dosing in liquid diet, plasma
[21] = female dog microsomes, read-out: t1/2 Dog Female
[22] = 80 mg/kg, Brain Concentration (Css), three-day dosing in liquid diet, brain
[23] = male dog microsomes, read-out: t1/2 Dog Male

Structure (SMILES): COc1ccc(-c2csc(Nc3ccc4ccccc4n3)n2)cc1OC [IND47, [4-(3,4-Dimethoxy-phenyl)-thiazol-2-yl]-quinolin-2-yl-amine]
- hepatic extraction ratio (ER) [1]: lower to moderate
- hepatic extraction ratio (ER) ([2]; human liver microsomes): lower to moderate
- EC50 ([3]; AMT analogs tested for potency): 426 nM
- EC50 [3, 13]: 426 nM
- hepatic extraction ratio (ER) [4]: lower to moderate
- Papp A→B [5]: 9.2 ×10⁻⁶ cm/s
- Papp B→A [5]: 8.9 ×10⁻⁶ cm/s
- efflux ratio [6]: 1
- half-life at 1 μM [7]: > 60 min
- % remaining after a 60-min incubation, Rat [7]: 50%
- Hepatic Extraction Ratio Rat [7]: 0.5
- t1/2 Rat (extrapolated) [7]: 69* min
- half-life at 1 μM ([8]; liver microsomes): 72 min
- half-life at 1 μM ([8]; mouse liver microsomes): > 60 min
- % remaining after a 60-min incubation, Mouse ([8]; mouse liver microsomes): 56%
- Hepatic Extraction Ratio Mouse [8]: 0.6
- % remaining after a 60-min incubation, Human ([9]; human liver microsomes): 113%
- half-life at 1 μM ([9]; human, human liver microsomes): > 60 min
- half-life at 1 μM ([9]; human, liver microsomes): > 60 min
- concentration at 3 days [10, 14]: 0.4 ± 0.28 µM
- concentration at 3 days [10, 15]: 0.13 ± 0.1 µM
- concentration at 3 days [10, 16]: 0.03 ± 0.02 µM
- concentration at 3 days [10, 17]: 0.4 ± 0.51 µM
- concentration at 3 days [10, 18]: 0.06 ± 0.02 µM
- concentration at 3 days [10, 19]: 0.23 ± 0.26 µM
- concentration at 3 days [10, 20]: 0.12 ± 0.05 µM
- concentration at 3 days ([10]; Brain and plasma concentrations, 40, 80, 130 and 210 mg/kg/day for 3 days): ≤ 1 µM

Structure (SMILES): Cc1cccc(Nc2nc(-c3ccc(-c4ccccc4)cc3)cs2)n1 [IND24, (4-Biphenyl-4-yl-thiazol-2-yl)-(6-methyl-pyridin-2-yl)-amine]
- metabolic stability (in words) [1]: stable; also recorded: excellent stability
- half-life at 1 μM ([1]; pH 7.4, 1 μM): > 60 min
- metabolic stability (in words) ([2]; human liver microsomes): stable; also recorded: excellent stability
- half-life at 1 μM ([2]; pH 7.4, human liver microsomes, 1 μM): > 60 min
- metabolism in HLM incubations ([2]; 1 μM): very little metabolism
- EC50 ([3]; AMT analogs tested for potency): 1270 nM
- EC50 [3, 13]: 1270 nM
- half-life at 1 μM [11, 21]: 51 min
- half-life at 1 μM ([11]; male dog microsomes, * extrapolated, read-out: t1/2 Dog Male (extrapolated)): 140 min
- EC50 [12]: 1270 nM
- metabolic stability (in words) [4]: stable
- half-life at 1 μM [7]: > 60 min
- % remaining after a 60-min incubation, Rat [7]: 90%
- half-life at 1 μM ([8]; liver microsomes): > 60 min
- half-life at 1 μM ([8]; mouse liver microsomes): > 60 min
- half-life at 1 μM ([8]; female, liver microsomes): 290 min
- half-life at 1 μM ([8]; male, liver microsomes): 190 min
- % remaining after a 60-min incubation, Mouse ([8]; mouse liver microsomes): 89%
- half-life at 1 μM ([9]; both, human, liver microsomes): 1400 min
- % remaining after a 60-min incubation, Human ([9]; human liver microsomes): 105%
- half-life at 1 μM ([9]; human, human liver microsomes): > 60 min
- half-life at 1 μM ([9]; human, liver microsomes): > 60 min
- concentration at 3 days [10, 14]: 8.7 ± 1.46 µM
- concentration at 3 days [10, 15]: 8.19 ± 8.09 µM
- concentration at 3 days [10, 22]: 19.3 ± 2.28 µM
- concentration at 3 days [10, 16]: 5.55 ± 1.18 µM
- concentration at 3 days [10, 17]: 31.8 ± 5.46 µM
- concentration at 3 days [10, 18]: 11.7 ± 4.85 µM
- concentration at 3 days [10, 19]: 37.4 ± 9.06 µM
- concentration at 3 days [10, 20]: 18.9 ± 20.5 µM
- Brain concentrations ([10]; female FVB mice, 75 mg/kg, formulations containing 0.125-1.25% (v/v) PEG400): > 8 µM

Structure (SMILES): Cc1ccc(Nc2nc(-c3cc(-c4ccccc4)no3)cs2)nc1 [IND33, (5-Methyl-pyridin-2-yl)-[4-(3-phenyl-isoxazol-5-yl)-thiazol-2-yl]-amine]
- hepatic extraction ratio (ER) [1]: lower to moderate
- hepatic extraction ratio (ER) ([2]; human liver microsomes): lower to moderate
- EC50 ([3]; AMT analogs tested for potency): 940 nM
- EC50 [3, 13]: 940 nM
- hepatic extraction ratio (ER) [4]: lower to moderate
- Papp A→B [5]: 6.8 ×10⁻⁶ cm/s
- Papp B→A [5]: 8.3 ×10⁻⁶ cm/s
- efflux ratio [6]: 1.2
- half-life at 1 μM [7]: > 60 min
- % remaining after a 60-min incubation, Rat [7]: 73%
- Hepatic Extraction Ratio Rat [7]: 0.3
- t1/2 Rat (extrapolated) [7]: 151* min
- half-life at 1 μM ([8]; liver microsomes): 99 min
- half-life at 1 μM ([8]; mouse liver microsomes): > 60 min
- % remaining after a 60-min incubation, Mouse ([8]; mouse liver microsomes): 111%
- Hepatic Extraction Ratio Mouse [8]: 0.5
- Hepatic Extraction Ratio Human ([9]; human): 0.7
- % remaining after a 60-min incubation, Human ([9]; human liver microsomes): 42%
- Hepatic Extraction Ratio Human ([9]; human microsomes): 0.7
- half-life at 1 μM ([9]; human, human liver microsomes): 54 min
- half-life at 1 μM ([9]; human, liver microsomes): 54 min
- concentration at 3 days [10, 14]: 0.88 ± 0.68 µM
- concentration at 3 days [10, 15]: 0.65 ± 0.38 µM
- concentration at 3 days [10, 22]: 5.39 ± 2.93 µM
- concentration at 3 days [10, 16]: 2.85 ± 1.3 µM
- concentration at 3 days [10, 17]: 30 µM
- concentration at 3 days [10, 18]: 4.74 ± 1.31 µM
- concentration at 3 days [10, 19]: 12.6 ± 8.62 µM
- concentration at 3 days [10, 20]: 14.2 ± 2.09 µM
- Brain Concentration (Css), 130 mg/kg ([10]; three-day dosing in liquid diet, 130 mg/kg, brain): 23.3 ± 13.2 µM

Structure (SMILES): Cc1ccnc(Nc2nc(-c3ccc(-c4ccccn4)s3)cs2)c1 [IND81, (4-Methyl-pyridin-2-yl)-[4-(5-pyridin-2-yl-thiophen-2-yl)-thiazol-2-yl]-amine]
- metabolism in HLM incubations ([2]; 1 μM): relatively high turnover
- half-life at 1 μM [11, 21]: 26 min
- half-life at 1 μM [11, 23]: 23 min
- Papp A→B [5]: 16 ×10⁻⁶ cm/s
- Papp B→A [5]: 20.9 ×10⁻⁶ cm/s
- half-life at 1 μM [7]: 58 min
- % remaining after a 60-min incubation, Rat [7]: 48%
- half-life at 1 μM ([8]; liver microsomes): 19 min
- half-life at 1 μM ([8]; mouse liver microsomes): 19 min
- half-life at 1 μM ([8]; female, liver microsomes): 26 min
- half-life at 1 μM ([8]; male, liver microsomes): 23 min
- % remaining after a 60-min incubation, Mouse ([8]; mouse liver microsomes): 10%
- half-life at 1 μM ([9]; both, human, liver microsomes): 40 min
- % remaining after a 60-min incubation, Human ([9]; human liver microsomes): 48%
- half-life at 1 μM ([9]; human, human liver microsomes): 52 min
- half-life at 1 μM ([9]; human, liver microsomes): 52 min

Structure (SMILES): C(=N\Nc1ccc(-c2cnco2)cc1)/c1ccncc1 [IND54304, reference compound]
- hepatic extraction ratio (ER) [1]: moderate (moderate ER 0.3-0.7)
- hepatic extraction ratio (ER) ([2]; human liver microsomes): low (Low ER<0.3)
- half-life at 1 μM [11, 21]: 16 min
- half-life at 1 μM [11, 23]: 20 min
- Hepatic Extraction Ratio Dog Female ([11]; female dog microsomes): 0.80
- Hepatic Extraction Ratio Dog Male ([11]; male dog microsomes): 0.79
- EC50 [12]: 400 nM
- Hepatic Extraction Ratio Rat Female ([7]; female rat microsomes): 0.27
- Hepatic Extraction Ratio Rat Male ([7]; male rat microsomes): 0.27
- Hepatic Extraction Ratio Mouse Female ([8]; female mouse microsomes): 0.64
- half-life at 1 μM ([8]; female, liver microsomes): 34 min
- Hepatic Extraction Ratio Mouse Male ([8]; male mouse microsomes): 0.71
- half-life at 1 μM ([8]; male, liver microsomes): 25 min
- half-life at 1 μM ([9]; both, human, liver microsomes): 130 min
- Hepatic Extraction Ratio Human ([9]; human (mixed) microsomes, gender study): 0.34
